Results as given in ChEMBL document CHEMBL5033995, “Discovery and Early Clinical Development of LY3202626, a Low-Dose, CNS-Penetrant BACE Inhibitor” (J Med Chem, 2021).

Assays:
[1] = Stability in mouse liver microsomes at 2 uM measured upto 30 mins in presence of NADPH by LC-MS/MS analysis; type: ADME, Microsome; details: read-out: Stability
[2] = Stability in dog liver microsomes at 2 uM measured upto 30 mins in presence of NADPH by LC-MS/MS analysis; type: ADME, Canis lupus familiaris, Microsome; details: read-out: Stability
[3] = Clearance in rat at 2 mg/kg, iv by LC-MS/MS analysis; type: ADME, organism-based; details: in vivo
[4] = Drug accumulation in human HepG2 cells lysosomes assessed as maximum fluorescence response after 24 hrs by Lysotracker Green DND-26 dye based assay; type: ADME, cell-based; details: hepg2, 24 h
[5] = Stability in rat liver microsomes at 2 uM measured upto 30 mins in presence of NADPH by LC-MS/MS analysis; type: ADME, Microsome; details: read-out: Stability
[6] = Bioavailability in rat; type: ADME, organism-based; details: in vivo
[7] = Clearance in dog at 1 mg/kg, iv by LC-MS/MS analysis; type: ADME, organism-based, Canis lupus familiaris; details: in vivo
[8] = Dissociation constant, pKa of compound; type: physicochemical
[9] = Ratio of free drug concentration in CSF to plasma of dog; type: ADME, Canis lupus familiaris; details: CSF and plasma
[10] = Lipophilicity, log P of the compound; type: physicochemical; details: octanol/water
[11] = Volume of distribution at steady state in dog at 1 mg/kg, iv by LC-MS/MS analysis; type: ADME, organism-based, Canis lupus familiaris; details: in vivo, read-out: Vdss
[12] = Stability in human liver microsomes at 2 uM measured upto 30 mins in presence of NADPH by LC-MS/MS analysis; type: ADME, Microsome; details: read-out: Stability
[13] = Volume of distribution at steady state in rat at 2 mg/kg, iv by LC-MS/MS analysis; type: ADME, organism-based; details: in vivo, read-out: Vdss
[14] = Permeability in MDCK cells; type: ADME, cell-based, Canis lupus familiaris; details: dog, read-out: permeability
[15] = Oral clearance in human; type: ADME
clinical = details: human, CSF and plasma

| SMILES | remaining at 0.5 h, 2 µM [1] | remaining at 0.5 h, 2 µM [2] | clearance [3] | Rmax [4] | remaining at 0.5 h, 2 µM [5] | bioavailability [6] | clearance [7] | pKa [8] | Kp uu [9] | logP [10] | Vd [11] | remaining at 0.5 h, 2 µM [12] | Vd [13] | Papp [14] | CL/F [15] | Kp uu (clinical) |
| --- | --- | --- | --- | --- | --- | --- | --- | --- | --- | --- | --- | --- | --- | --- | --- | --- |
| NC1=N[C@@]2(c3cc(NC(=O)c4ccc(F)cn4)ccc3F)COC[C@H]2CS1 [LY-2886721] | 33% | 0% | 94 mL/min/kg | 7863 | 19% | 30% | 4.9 mL/min/kg | 7.7 | 0.9 | 2.1 | 2.3 L/kg | 11% | 10.4 L/kg | 55 ×10⁻⁶ cm/s |  |  |
| C[C@@H]1C[C@H]1CNC(=O)[C@@H]1C[C@H]1[C@]12COC[C@H]1CSC(N)=N2 | 23% | 8% |  |  | 84% |  |  | 8 |  | 0.8 |  | 19% |  | 14 ×10⁻⁶ cm/s |  |  |
| Cl.N#Cc1ccc([C@]23CN(c4ncc(F)cn4)C[C@H]2CSC(N)=N3)s1 |  |  |  | 91 |  |  |  | 6.6 |  | 2.3 |  |  |  |  |  |  |
| C[C@@H]1C[C@H]1COC(C)(C)[C@@H]1C[C@H]1[C@]12CN(c3ncccn3)C[C@H]1CSC(N)=N2 | 98% | 79% |  |  | 98% |  |  |  |  |  |  | 31% |  | 36 ×10⁻⁶ cm/s |  |  |
| Cl.Cl.NC1=N[C@@]2(c3cccs3)CN(c3ncccn3)C[C@H]2CS1 |  |  |  |  |  |  |  | 7.6 |  | 1.9 |  |  |  | 59 ×10⁻⁶ cm/s |  |  |
| Cl.NC1=N[C@@]2(c3ccns3)CN(c3ncc(F)cn3)C[C@H]2CS1 |  |  | 53.2 mL/min/kg | 20 |  |  | 6 mL/min/kg | 6.4 | 1 | 1.3 | 2.1 L/kg |  | 2.87 L/kg | 59 ×10⁻⁶ cm/s |  |  |
| Cl.NC1=N[C@@]2(c3cccs3)CN(c3ncc(F)cn3)C[C@H]2CS1 |  |  |  | 4090 |  |  |  | 7.5 |  | 2.4 |  |  |  | 60 ×10⁻⁶ cm/s |  |  |
| C[C@@H]1C[C@H]1CNC(=O)[C@@H]1C[C@H]1[C@]12CN(c3ncccn3)C[C@H]1CSC(N)=N2 | 33% | 28% |  |  | 55% |  |  | 8 |  | 2 |  | 13% |  | 8 ×10⁻⁶ cm/s |  |  |
| NC1=N[C@@]2(c3cc(NC(=O)c4ccc(F)cn4)ccc3F)CN(c3ncc(F)cn3)C[C@H]2CS1 (relative stereo) | 25% | 8% | 7.8 mL/min/kg |  | 16% | 72% | 1.6 mL/min/kg | 7.9 | 0.1 | 3.1 | 1.1 L/kg | 13% | 2.5 L/kg | 33 ×10⁻⁶ cm/s |  |  |
| NC1=N[C@@]2(c3cc(NC(=O)c4ncc(F)cc4F)ccc3F)CN(c3ncc(F)cn3)C[C@H]2CS1 | 22% | 7% | 15 mL/min/kg |  | 7% | 55% | 2.7 mL/min/kg | 7.7 | 0.2 | 2.8 | 0.52 L/kg | 13% | 2.2 L/kg | 30 ×10⁻⁶ cm/s |  |  |
| C[C@@]1(c2cc(-c3cncnc3)c(F)cc2F)CCSC(N)=N1 [LY-2811376] |  |  |  | 3364 |  |  |  | 8.8 |  | 2.9 |  |  |  | 60 ×10⁻⁶ cm/s |  |  |
| Cl.NC1=N[C@@]2(c3cnccn3)CN(c3ncc(F)cn3)C[C@H]2CS1 |  |  |  | 59 |  |  |  | 7.1 |  | 0.8 |  |  |  | 54 ×10⁻⁶ cm/s |  |  |
| COc1cnc(C(=O)Nc2ccc(F)c([C@]34CN(c5ncc(F)cn5)C[C@H]3CSC(N)=N4)c2)cn1 | 27% | 50% | 20 mL/min/kg |  | 7% | 47% | 5.2 mL/min/kg | 7.6 | 0.9 | 3.2 | 0.78 L/kg | 12% | 5.2 L/kg | 19 ×10⁻⁶ cm/s | 26 mL/min/kg | 1 |
